Assay results: patent US10918613B2, “Antioxidant compositions for treatment of inflammation or oxidative damage” (Perio Sciences, LLC, priority 2011, dated 2021)
Where two headings read alike, the source gives them in different places.

Legend:
[1] = test system: Oral fibroblasts obtained from human gingival (HGF) tissues; assay: MTS cell viability assay of HGF cells pre-treated with Zn, Cu and Ni, then AO mixtures
Protocol: (§1) In dentistry, the use of metals in fillings, braces, bridges and other prosthodontic restorations may form free radicals. […] A study was conducted to determine if oral fibroblasts are susceptible to damage from these agents which elevate reaction oxygen species (ROS). In this study, specific antioxidant (AO) combinations were investigated that counteract the effects of Zn, Cu and Ni on cultured oral fibroblast proliferation and oxidative damage. Oral fibroblasts obtained from human gingival (HGF) tissues were seeded into 96-well plates. After achieving 70% confluence, the cells were pre-treated with Zn, Cu and Ni for 30 and 60 minutes. Thereafter, cells were exposed to 10^-5M of the bioactive AO mixtures; resveratrol (R), ferulic acid (F) phloretin (P) and tetrahydrocurcuminoids (T); (RFT, PFR, PFT) for 24 hours. Cell viability was monitored by MTS assay. The fluorescence response of dichlorodihydrofluorescein diacetate to various ROS was measured.
(§2) A study was conducted to determine if oral fibroblasts are susceptible to damage from these agents by decreasing cell viability and whether specific antioxidants (AO) in combinations can counteract these effects. Oral fibroblasts obtained from human gingival (HGF) tissues were seeded into 96-well plates. After achieving 70% confluence, the cells were pre-treated with Zn, Cu and Ni for 30 and 60 minutes. Thereafter, cells were exposed to 10^-5M of the bioactive AO mixtures at single, double and triple combinations; resveratrol (R), ferulic acid (F), phloretin (P), and tetrahydrocurcuminoids (T) for 24 hours. Cell viability was monitored by MTS assay.

[2] = test system: Oral fibroblasts obtained from human gingival (HGF) tissues
Protocol: as §1, §2

[3] = test system: fibroblasts from human gingival (HGF) and human periodontal ligament (HPDF) cells
Protocol: A study was done to determine the antioxidant effect on fibroblasts from human gingival (HGF) and human periodontal ligament (HPDF) cells exposed to increasing concentration of cytotoxic metals. HGF and HPDF cells were extracted and seeded with 10% fetal bovine serum (FBS). Both the HGF and HPDF cells were then exposed to one of 3×10^−4M or 2×10^−4M ZnCl2, 2×10^−3M or 1×10^−3M NiCl2, 5×10^−4M or 4×10^−4M CuCl2. Next, the samples were treated with bioactive antioxidant (AO) mixtures at single, double, and triple combinations; resveratrol (R), ferulic acid (F), phloretin (P), and tetrahydrocurcuminoids (T). Both the HGF and HPDF cells were then monitored by MTS, ROS, and BrdU assays.

TNF-α = TNF-α production by Aa Y4 LPS-stimulated PBMCs (ELISA); format: cell-based, human; details: PBMCs pre-treated 2 hrs with 1×10^−4M anti-oxidant, then LPS 18 hrs
From the text: (§3) Cell Culture—PBMCs were isolated from buffy coats derived from healthy donors (Sylvan N. Goldman Oklahoma Blood Institute, Oklahoma City, Okla., USA) by density gradient centrifugation (Ficoll-Paque plus; GE Healthcare, Piscataway, N.J., USA). Oleuropein (purity=80.17%) was purchased from Sabinsa Corporation (Payson, Utah, USA). Silymarin (purity≥95%), ferulic acid (purity≥98%), hesperetin (purity≥95%), resveratrol (purity≥99%), and phloretin (purity≥99%) were purchased from Sigma-Aldrich (St Louis, Mo., USA). Dimethyl sulfoxide (DMSO) (purity=99.90%) was purchased from EMD Millipore (Billerica, Mass., USA). Oleuropein, silymarin, ferulic acid, hesperetin, resveratrol and phloretin were provided as 0.1M stock solutions prepared in DMSO by Periosciences Ltd (Dallas, Tex., USA).
PBMCs were seeded at either 4×10^5 or 1.2×10^6 cells in 96- or 48-well tissue culture plates (BD Biosciences, Franklin Lakes, N.J., USA) respectively. PBMCs were pre-treated with single antioxidants at a concentration of 1×10^−4 M or combinations of antioxidants with a combined concentration of 1×10^−4 M for 2 hrs prior to stimulation. […] S.C.) at a concentration of 1 μg/ml in the presence of antioxidants. Media were collected, spun at 1600 RPM and cell-free supernatants transferred to fresh tubes and stored at −20 C. Cell viability was assayed using CellTiter 96® AQueous One Solution Reagent (Promega, Madison, Wis., USA) following the manufacturers guidelines. 20 μl of the reagent was added to each well and incubated for 2 hrs under culture conditions. After 2 hrs the absorbance at 490 nm was recorded using a 96-well plate reader.
ELISA and Multiplex Assays—Human tumour necrosis factor-alpha (TNF-α) capture and detection Abs were purchased from Life Technologies (Carlsbad, Calif., USA) and used for the development of a TNF-α sandwich ELISA according to the manufacturer's instructions. Cell culture supernatants were analyzed using a 96-well plate reader with absorbance at 450 nm (reference 650 nm).
Stimulation of PBMCs with Aa Y4 LPS—To establish the optimal concentrations of anti-oxidants and LPS for this study, dose and kinetic experiments were performed. The doses examined were: 1×10^−4, 1×10^−5 and 1×10^−6M while the challenge concentrations of Aa Y4 LPS were 1, 10, 100 or 1000 ng/ml. Whole blood was stimulated with several concentrations of E. coli or Aa Y4 LPS and TNF-α production quantified by ELISA over 3 time-points: 16, 24 and 48 hrs.

IL-1α = IL-1α production by LPS-stimulated PBMCs (multiplex); format: cell-based, human; details: 1×10^−4M anti-oxidant 2 hrs, then LPS 18 hrs
From the text: as §3
(§4) PBMCs were seeded at either 4×10^5 or 1.2×10^6 cells in 96- or 48-well tissue culture plates (BD Biosciences, Franklin Lakes, N.J., USA) respectively. PBMCs were pre-treated with single antioxidants at a concentration of 1×10^−4 M or combinations of antioxidants with a combined concentration of 1×10^−4 M for 2 hrs prior to stimulation. PBMCs were then stimulated for 16 hrs with purified LPS isolated from the bacterium Actinobacillus actinomycetemcomitans, strain Y4 (Aa Y4); a kind gift of Dr Kirkwood, Univ. S.C.) at a concentration of 1 μg/ml in the presence of antioxidants. Media were collected, spun at 1600 RPM and cell-free supernatants transferred to fresh tubes and stored at −20 C. […] After 2 hrs the absorbance at 490 nm was recorded using a 96-well plate reader.
(§5) Human Cytokine Fluorokine MAP kit was purchased from R & D Systems (Minneapolis, Minn., USA). Readouts included TNF-α, IL-1α, IL-1β, IL-1Ra, IL-2, IL-4, IL-5, IL-6, IL-8, IL-10, IL-17, macrophage inflammatory protein (MIP)-1α (MIP-1α), MIP-1β, interferon-γ (IFN-γ), granulocyte-colony stimulating factor (G-CSF), granulocyte macrophage-colony stimulating factor (GM-CSF), macrophage chemotactic protein (MCP-1), CCL5, CXCL5, vascular endothelial growth factor (VEGF), thrombopoietin (TPO) and fibroblast growth factor basic (FGFb). […]

IL-1β = IL-1β production by LPS-stimulated PBMCs (multiplex, FIG. 9D); format: cell-based, human; details: 1×10^−4M anti-oxidant 2 hrs, then LPS 18 hrs
From the text: as §3, with “Oleuropein, silymarin, ferulic acid, hesperetin, resveratrol and phloretin were provided as 0.1M stock solutions prepared in DMSO by Periosciences Ltd (Dallas, Tex., USA).” left out
(§6) PBMCs were seeded at either 4×10^5 or 1.2×10^6 cells in 96- or 48-well tissue culture plates (BD Biosciences, Franklin Lakes, N.J., USA) respectively. […] After 2 hrs the absorbance at 490 nm was recorded using a 96-well plate reader.
as §5

IL-6 = IL-6 production by LPS-stimulated PBMCs (multiplex); format: cell-based, human; details: 1×10^−4M anti-oxidant 2 hrs, then LPS 18 hrs
From the text: as §3, §4, §5

IFN-γ = IFN-γ production by LPS-stimulated PBMCs (multiplex); format: cell-based, human; details: 1×10^−4M anti-oxidant 2 hrs, then LPS 18 hrs
From the text: as §3, §4, §5

G-CSF = G-CSF production by LPS-stimulated PBMCs (multiplex); format: cell-based, human; details: 1×10^−4M anti-oxidant 2 hrs, then LPS 18 hrs
From the text: Cell Culture—PBMCs were isolated from buffy coats derived from healthy donors (Sylvan N. Goldman Oklahoma Blood Institute, Oklahoma City, Okla., USA) by density gradient centrifugation (Ficoll-Paque plus; GE Healthcare, Piscataway, N.J., USA). Oleuropein (purity=80.17%) was purchased from Sabinsa Corporation (Payson, Utah, USA). […] Dimethyl sulfoxide (DMSO) (purity=99.90%) was purchased from EMD Millipore (Billerica, Mass., USA). Oleuropein, silymarin, ferulic acid, hesperetin, resveratrol and phloretin were provided as 0.1M stock solutions prepared in DMSO by Periosciences Ltd (Dallas, Tex., USA).
PBMCs were seeded at either 4×10^5 or 1.2×10^6 cells in 96- or 48-well tissue culture plates (BD Biosciences, Franklin Lakes, N.J., USA) respectively. PBMCs were pre-treated with single antioxidants at a concentration of 1×10^−4 M or combinations of antioxidants with a combined concentration of 1×10^−4 M for 2 hrs prior to stimulation. PBMCs were then stimulated for 16 hrs with purified LPS isolated from the bacterium Actinobacillus actinomycetemcomitans, strain Y4 (Aa Y4); a kind gift of Dr Kirkwood, Univ. S.C.) at a concentration of 1 μg/ml in the presence of antioxidants. Media were collected, spun at 1600 RPM and cell-free supernatants transferred to fresh tubes and stored at −20 C. Cell viability was assayed using CellTiter 96® AQueous One Solution Reagent (Promega, Madison, Wis., USA) following the manufacturers guidelines. […] After 2 hrs the absorbance at 490 nm was recorded using a 96-well plate reader.

IL-1Ra = IL-1Ra production by LPS-stimulated PBMCs (multiplex); format: cell-based, human; details: 1×10^−4M anti-oxidant 2 hrs, then LPS 18 hrs
From the text: as §3, with “Oleuropein, silymarin, ferulic acid, hesperetin, resveratrol and phloretin were provided as 0.1M stock solutions prepared in DMSO by Periosciences Ltd (Dallas, Tex., USA).” left out
as §6, §5

IL-10 = IL-10 production by LPS-stimulated PBMCs (multiplex); format: cell-based, human; details: 1×10^−4M anti-oxidant 2 hrs, then LPS 18 hrs
From the text: as §3, with “Oleuropein, silymarin, ferulic acid, hesperetin, resveratrol and phloretin were provided as 0.1M stock solutions prepared in DMSO by Periosciences Ltd (Dallas, Tex., USA).” left out
as §6, §5

CCL5 = CCL5 production by LPS-stimulated PBMCs (multiplex); format: cell-based, human; details: 1×10^−4M anti-oxidant 2 hrs, then LPS 18 hrs
From the text: as §3, with “Oleuropein, silymarin, ferulic acid, hesperetin, resveratrol and phloretin were provided as 0.1M stock solutions prepared in DMSO by Periosciences Ltd (Dallas, Tex., USA).” left out
as §6, §5

TNF-α mRNA = assay: RT-PCR of TNF-α mRNA in LPS-stimulated PBMCs; format: cell-based, human; details: harvested after 4 hrs, 2-ΔΔCt, GAPDH control
Protocol: (§7) RT-PCR Assays—Total RNA was extracted from homogenized cells using the miRNeasy kit (Qiagen, Valencia, Calif., USA) according to the manufacturer's protocol. Total RNA quantified on Nanodrop (ThermoScientific, Rockford, Ill., USA) was used for first strand cDNA synthesis using the SS RTIII kit (Life Technologies, Carlsbad, Calif., USA). Real-time PCR was performed using EvaGreen 2× master mix (Biotium, Hayward, Calif., USA), 10 pmol forward and reverse gene specific primers and 1 ul of 1:10 diluted cDNA. GAPDH was used as endogenous control. The fold change was calculated using 2-ΔΔCt method and the control was set at 1. Custom primers were purchased from Sigma-Aldrich (St Louis, Mo., USA). Primer sequences for TNF-α were: Forward, […], Reverse: […]. Primer sequences for IκB-α were: Forward, […], Reverse: […]. Data Analysis—Statistics were performed using two-tailed t-test or one-way analysis of variance (ANOVA). Statistical significance is indicated by an asterisk *, where p≤0.05. Error bars on all graphs indicate standard error of mean (SEM) or standard deviation (SD).
(§8) Inhibition of TNF-α is present at the level of mRNA transcription—Whether the reduced production of inflammatory mediators was due to decreased mRNA transcription was investigated. […] After 4 hrs the cells were harvested, total RNA isolated and RT-PCR performed to measure the levels of TNF-α mRNA present. […]

IκB-α mRNA = assay: RT-PCR of IκB-α mRNA in LPS-stimulated PBMCs (NF-κB activation); format: cell-based, human
Protocol: as §7, §8

[4] = HGF and HPDF, Example 4 metal concentrations

[Cl][Cu][Cl] [Cu, CuCl2]
viable cells after incubation with metal (MTS) [1]: dose-dependent decrease of viable cells
effect of metal on ROS [2]: increased ROS
effect of metal on ROS [3]: increased ROS

COc1ccc([C@@H]2CC(=O)c3c(O)cc(O)cc3O2)cc1O [hesperetin]
TNF-α production (TNF-α): Significant inhibition
production of IL-1α (IL-1α): inhibited the production
levels of IL-1β (IL-1β): decreased levels
production of IL-6 (IL-6): inhibited the production
IFN-γ induced by LPS stimulation (IFN-γ): abolished
G-CSF production (G-CSF): inhibited

[Cl-].[Cl-].[Zn+2] [Zn, ZnCl2]
viable cells after incubation with metal (MTS) ([1]; HGF cells, 30 and 60 minutes): dose-dependent decrease of viable cells
effect of metal on ROS ([2]; HGF cells): increased ROS
effect of metal on ROS [3, 4]: little effect on ROS

O=C(CCc1ccc(O)cc1)c1c(O)cc(O)cc1O [phloretin]
TNF-α production (TNF-α): Significant inhibition
production of IL-1α (IL-1α): inhibited the production
production of IL-6 (IL-6): inhibited the production
IFN-γ induced by LPS stimulation (IFN-γ): abolished
G-CSF production (G-CSF): inhibited
production of IL-1Ra (IL-1Ra): inhibited the production
production of IL-10 (IL-10): inhibited the production

[Cl][Ni][Cl] [Ni, NiCl2]
viable cells after incubation with metal (MTS) ([1]; HGF cells, 30 and 60 minutes): dose-dependent decrease of viable cells
effect of metal on ROS ([2]; HGF cells): increased ROS
effect of metal on ROS [3, 4]: little effect on ROS

COc1cc(/C=C/C(=O)O)ccc1O [ferulic acid]
TNF-α production (TNF-α): no observed effect
production of CCL5 (CCL5): Apart from ferulic acid
reduction of TNF-α mRNA expression levels (TNF-α mRNA): not

Oc1ccc(C=Cc2cc(O)cc(O)c2)cc1 [resveratrol]
TNF-α production (TNF-α): Significant inhibition
production of IL-1α (IL-1α): inhibited the production
levels of IL-1β (IL-1β): decreased levels
production of IL-6 (IL-6): inhibited the production
IFN-γ induced by LPS stimulation (IFN-γ): abolished
G-CSF production (G-CSF): inhibited
production of IL-1Ra (IL-1Ra): inhibited the production
production of IL-10 (IL-10): inhibited the production
reduction of IκB-α mRNA expression (IκB-α mRNA): ~50%
